Laboratory results as given in patent US20040058898A1, “Pharmaceutical composition for alleviating the violence of a mammal comprising nortestosterone derivatives” (priority 2002, published 2004).
Entries after “also recorded” stand apart in the source; their conditions may differ.

Tests used:
Format in all cases: in vivo
[1] = system: male goats which violently behaved, cried and did not take feed; test: Alleviation of the violence and stimulation of the appetite in male goat; conditions: male goat 40 kg, intramuscular
From the text: (§1) After administration, their behaviors and appetites were observed.

[2] = system: male horses which violently behaved, cried and did not take feed; test: Alleviation of the violence and stimulation of the appetite in male horse; conditions: male horse 200 kg, intramuscular
From the text: as §1

[3] = system: male lion which violently behaved, cried and did not take feed; test: Alleviation of the violence and stimulation of the appetite in male lion
[4] = system: male ostriches which violently behaved, cried and did not take feed; test: Alleviation of the violence and stimulation of the appetite in male ostrich; conditions: male ostrich 100 kg, intramuscular
From the text: as §1

[5] = system: male cats which violently behaved, cried and did not take feed; test: Alleviation of the violence and stimulation of the appetite in male cat; conditions: male cat 1 kg, intramuscular
From the text: as §1

[6] = system: male dogs which violently behaved, cried and did not take feed; test: Alleviation of the violence and stimulation of the appetite in male dog; conditions: male dog 40 kg, intramuscular
From the text: as §1

[7] = 40 mg (1 mg per kg), Experimental Example 26
[8] = 40 mg (1 mg per kg), Experimental Example 26, listed as 17-decanoate-4-estren-3-one
[9] = 200 mg (1 mg per kg), Experimental Example 24
[10] = male lion 100 kg, 100 mg (1 mg per kg), Experimental Example 28
[11] = male lion 100 kg, 10, 20, 50, 100, 150, 200, 500 and 1000 mg (0.1 to 10 mg per kg), Experimental Example 29
[12] = 100 mg (1 mg per kg), Experimental Example 1
[13] = 1 mg per Table 5 (1 mg per kg; 100 mg [sic]), Experimental Example 22
[14] = 40 mg (1 mg per kg), Experimental Example 20

CCCCCCCCCC(=O)O[C@H]1CC[C@H]2[C@@H]3CCC4=CC(=O)CC[C@@H]4[C@H]3CC[C@]12C [17β-decanoate-4-estren-3-one]
Violence and appetite, After administration: appetite ([1]; 4 mg (0.1 mg per kg), Experimental Example 27): stimulated appetite | Violence and appetite, After administration: appetite ([1]; 8 mg (0.2 mg per kg), Experimental Example 27): stimulated appetite | Violence and appetite, After administration: appetite ([1]; 20 mg (0.5 mg per kg), Experimental Example 27): stimulated appetite | Violence and appetite, After administration: appetite [1, 7]: stimulated appetite | feed intake after administration [1, 7]: increased feed intake | Violence and appetite, After administration: appetite [1, 8]: appetite stimulated | Violence and appetite, After administration: violence [1, 8]: violence of estrus alleviated | Violence and appetite, After administration: appetite ([1]; 40 mg (1.0 mg per kg), Experimental Example 27): stimulated appetite | Violence and appetite, After administration: appetite ([1]; 60 mg (1.5 mg per kg), Experimental Example 27): stimulated appetite | Violence and appetite, After administration: appetite ([1]; 80 mg (2.0 mg per kg), Experimental Example 27): stimulated appetite | Violence and appetite, After administration: appetite ([1]; 200 mg (5.0 mg per kg), Experimental Example 27): stimulated appetite | Violence and appetite, After administration: appetite ([1]; 400 mg (10 mg per kg), Experimental Example 27): stimulated appetite | Violence and appetite, After administration: appetite ([2]; 20 mg (0.1 mg per kg), Experimental Example 25): stimulated appetite | Violence and appetite, After administration: appetite ([2]; 40 mg (0.2 mg per kg), Experimental Example 25): stimulated appetite | Violence and appetite, After administration: appetite ([2]; 100 mg (0.5 mg per kg), Experimental Example 25): stimulated appetite | Violence and appetite, After administration: appetite [2, 9]: appetite stimulated; also recorded: stimulated appetite | Violence and appetite, After administration: violence [2, 9]: violence of estrus alleviated | feed intake after administration [2, 9]: increased feed intake | Violence and appetite, After administration: appetite ([2]; 200 mg (1.0 mg per kg), Experimental Example 25): stimulated appetite | Violence and appetite, After administration: appetite ([2]; 300 mg (1.5 mg per kg), Experimental Example 25): stimulated appetite | Violence and appetite, After administration: appetite ([2]; 400 mg (2.0 mg per kg), Experimental Example 25): stimulated appetite | Violence and appetite, After administration: appetite ([2]; 1000 mg (5.0 mg per kg), Experimental Example 25): stimulated appetite | Violence and appetite, After administration: appetite ([2]; 2000 mg (10 mg per kg), Experimental Example 25): stimulated appetite | appetite after intramuscular injection [3, 10]: appetite stimulated | feed intake after administration [3, 10]: increased feed intake | violence of estrus after intramuscular injection [3, 10]: violence of estrus alleviated | appetite after intramuscular injection [3, 11]: appetite stimulated | feed intake after administration [3, 11]: increased feed intake | violence of estrus after intramuscular injection [3, 11]: violence of estrus alleviated | Violence and appetite, After administration: appetite ([4]; 10 mg (0.1 mg per kg), Experimental Example 2): stimulated appetite | Violence and appetite, After administration: appetite ([4]; 20 mg (0.2 mg per kg), Experimental Example 2): stimulated appetite | Violence and appetite, After administration: appetite ([4]; 50 mg (0.5 mg per kg), Experimental Example 2): stimulated appetite | Violence and appetite, After administration: appetite [4, 12]: appetite stimulated; also recorded: stimulated appetite | Violence and appetite, After administration: violence [4, 12]: violence of estrus alleviated | feed intake after administration [4, 12]: increased feed intake | Violence and appetite, After administration: appetite ([4]; 100 mg (1.0 mg per kg), Experimental Example 2): stimulated appetite | Violence and appetite, After administration: appetite ([4]; 150 mg (1.5 mg per kg), Experimental Example 2): stimulated appetite | Violence and appetite, After administration: appetite ([4]; 200 mg (2.0 mg per kg), Experimental Example 2): stimulated appetite | Violence and appetite, After administration: appetite ([4]; 500 mg (5.0 mg per kg), Experimental Example 2): stimulated appetite | Violence and appetite, After administration: appetite ([4]; 1000 mg (10 mg per kg), Experimental Example 2): stimulated appetite | Violence and appetite, After administration: appetite ([5]; 0.1 mg (0.1 mg per kg), Experimental Example 23): stimulated appetite | Violence and appetite, After administration: appetite ([5]; 0.2 mg (0.2 mg per kg), Experimental Example 23): stimulated appetite | Violence and appetite, After administration: appetite ([5]; 0.5 mg (0.5 mg per kg), Experimental Example 23): stimulated appetite | Violence and appetite, After administration: appetite ([5]; 1 mg (1.0 mg per kg), Experimental Example 23): stimulated appetite | Violence and appetite, After administration: appetite [5, 13]: appetite stimulated; also recorded: stimulated appetite | Violence and appetite, After administration: violence [5, 13]: violence of estrus alleviated | feed intake after administration [5, 13]: increased feed intake | Violence and appetite, After administration: appetite ([5]; 1.5 mg (1.5 mg per kg), Experimental Example 23): stimulated appetite | Violence and appetite, After administration: appetite ([5]; 2 mg (2.0 mg per kg), Experimental Example 23): stimulated appetite | Violence and appetite, After administration: appetite ([5]; 5 mg (5.0 mg per kg), Experimental Example 23): stimulated appetite | Violence and appetite, After administration: appetite ([5]; 10 mg (10 mg per kg), Experimental Example 23): stimulated appetite | Violence and appetite, After administration: appetite ([6]; 4 mg (0.1 mg per kg), Experimental Example 21): stimulated appetite | Violence and appetite, After administration: appetite ([6]; 8 mg (0.2 mg per kg), Experimental Example 21): stimulated appetite | Violence and appetite, After administration: appetite ([6]; 20 mg (0.5 mg per kg), Experimental Example 21): stimulated appetite | Violence and appetite, After administration: appetite [6, 14]: appetite stimulated; also recorded: stimulated appetite | Violence and appetite, After administration: violence [6, 14]: violence of estrus alleviated | feed intake after administration [6, 14]: increased feed intake | Violence and appetite, After administration: appetite ([6]; 40 mg (1.0 mg per kg), Experimental Example 21): stimulated appetite | Violence and appetite, After administration: appetite ([6]; 60 mg (1.5 mg per kg), Experimental Example 21): stimulated appetite | Violence and appetite, After administration: appetite ([6]; 80 mg (2.0 mg per kg), Experimental Example 21): stimulated appetite | Violence and appetite, After administration: appetite ([6]; 200 mg (5.0 mg per kg), Experimental Example 21): stimulated appetite | Violence and appetite, After administration: appetite ([6]; 400 mg (10 mg per kg), Experimental Example 21): stimulated appetite
